From US7572463B2, “Oral dosage forms” (Gruenenthal GmbH, priority 1999, dated 2009)
Counter-ions that a name gives are not always drawn.

Assays:
[1] = In-vitro release profile, European Pharmacopoeia basket apparatus, synthetic gastric then intestinal juices, HPLC; format: physicochemical
Description: The release profiles of the oral dosage forms according to the invention were determined as follows:
The dosage forms according to the invention were tested in the European Pharmacopoeia basket apparatus at a temperature of the released medium of 37±0.5° C., and at a rate of 50 rpm for 2 hours in 600 ml synthetic gastric juices without enzymes at pH 1.2. Following this, the dosage form was tested for a further 8 hours in 900 ml synthetic intestinal juices without enzymes at pH 7.2. The quantity of active substance released at a given time was determined in each case by means of HPLC. The values shown are average values based in each case on 3 samples. The invention will be explained below with reference to examples.
(§1) The release profile was determined according to the method indicated above using the basket apparatus and this is reproduced in the following Table 1 and in FIG. 1 (as a percentage of the total dose, calculated as tramadol hydrochloride). By way of deviation from the conditions described above, the coated pellets were tested for 18 hours in synthetic intestinal juices without enzymes at pH 7.2.
as §1, with “2” for “1”, “10” for “18”

[2] = Water solubility of the active-substance salts (saturated solution in deionised water, HPLC); format: physicochemical; conditions: 25° C., 20 hours stirring
Description: The water solubility of the active-substance salts was determined as follows:
The quantity of the relevant active-substance salts required for this may optionally be determined by means of preliminary experiments.
After the un-dissolved active-substance salt had been allowed to settle, the clear supernatant was removed by pipette and centrifuged at rate of at least 3000 rpm for five minutes.

[3] = salt in the ethyl cellulose coated pellets of Example 2
[4] = salt in the shellac coated pellets of Example 3, tests in synthetic intestinal juices

## COc1cccc(C2(O)CCCCC2CN(C)C)c1.O=C(O)Cc1ccccc1Nc1c(Cl)cccc1Cl (stereo not drawn) [[1e-(m-methoxyphenyl)-2e-dimethylaminomethyl-cyclohexane-1(a)-ol]-[2-(2′,6′-dichloranilino)-phenylacetate]]
[1]; [3]
  period over which tramadol is released in a retarded manner from the salt: 10 h
[1]; [4]
  period over which tramadol is released in a retarded manner from the salt: 8 h

## COc1cccc(C2(O)CCCCC2CN(C)C)c1 (stereo not drawn) [tramadol hydrochloride]
[1]; [3]
  release of the active substance tramadol from the salt (in words): released very rapidly
[1]; [4]
  release of the active substance tramadol from the salt (in words): released very rapidly
[2]; thermodynamic from solid
  solubility at 20 h: > 300 mg/mL

## COc1cccc(C2(O)CCCCC2CN(C)C)c1.O=C1NS(=O)(=O)c2ccccc21 (stereo not drawn) [tramadolsaccharinate]
[2]
  water solubility: approx. 20 mg/ml
